Measurements from patent publication US8609725B2, “Method of using beta-hydroxy-beta-methylbutyrate for reducing tumor growth rate” (Abbott Laboratories, priority 2004, dated 2013).

Key:
[1] = tested on: soleus muscle of mice bearing the MAC16 tumor; experiment: Soleus muscle weight and protein degradation (tyrosine release) in MAC16 mice; type: in vivo, NMRI mice; settings: EPA 0.6 g/kg, HMB 0.25 g/kg or the combination for 3 days
Excerpt: Pure strain male NMRI mice (average weight 25 g) were obtained from our own inbred colony and were transplanted with fragments of the MAC16 tumor s.c. into the flank by means of a trochar, selecting from donor animals with established weight loss as described in Bibby, M. C. et al. Characterization of a transplantable adenocarcinoma of the mouse colon producing cachexia in recipient animals. J. Natl. Cancer Inst., 78: 539-546, 1987. Transplanted animals were fed a rat and mouse breeding diet (Special Diet Services, Witham, United Kingdom) and water ad libitum, and weight loss was evident 10-12 days after tumor implantation. Animals just prior to the development of weight loss were randomized to receive daily either EPA (in olive oil), HMB (in PBS) or the combination as described in the figure legends administered p.o. by gavage, while control animals received either olive oil or PBS. EPA (98% as free acid) was purchased from Biomol Research Laboratories Inc., PA, USA. HMB (as the calcium salt) was obtained from Abbott Laboratories, Columbus, Ohio, USA. All groups contained a minimum of 6 mice. Tumor volume, body weight and food and water intake were monitored daily. […] Protein degradation was determined by the release of tyrosine over a 2 h period as described in […]. et al. A fluorimetric method for the estimation of tyrosine in plasma and tissues. […]

C2C12 myotubes = experiment: PIF-induced total protein degradation in C2C12 myotubes; type: cell-based, murine
Protocol: C2C12 myotubes were routinely passaged in DMEM supplemented with 10% FCS, glutamine and 1% penicillin-streptomycin under an atmosphere of 10% CO2 in air at 37 °C. Myotubes were formed by allowing confluent cultures to differentiate in DMEM containing 2% HS, with medium changes every 2 days.
PIF was purified from solid MAC16 tumors (Todorov, P. et al. Characterization of a cancer cachectic factor. Nature, 379: 739-742, 1996.) excised from mice with a weight loss of 20 to 25%. Tumors were homogenised in 10 mM Tris-HCl, pH 8.0, containing 0.5 mM phenylmethylsulfonyl fluoride, 0.5 mM EGTA and 1 mM dithiothreitol at a concentration of 5 ml/g tumor. […]
Myotubes in six-well multidishes were labeled with L-[2, 6^−3H] phenylalanine (0.67 mCi/mmole) for 24 h in 2 ml DMEM containing 2% HS. They were then washed three times in PBS followed by a 2 h incubation at 37° C. in DMEM without phenol red until no more radioactivity appeared in the supernatant. These myotubes were then further incubated for 24 h in the presence of PIF, with and without EPA or HMB, in fresh DMEM without phenol red, to prevent quenching of counts, and in the presence of 2 mM cold phenylalanine to prevent reincorporation of radioactivity. The amount of radioactivity released into the medium was expressed as a percentage of control cultures not exposed to PIF to determine total protein degradation.

[2] = tested on: mice bearing the MAC16 tumor; experiment: Body composition analysis of mice bearing the MAC16 tumor; type: in vivo
Excerpt: Materials and animals were obtained as per Example 1.

[3] = tested on: 20S proteasome β-subunits; experiment: Western blotting of 20S proteasome β-subunits in gastrocnemius muscle of MAC16 mice; type: in vivo, NMRI mice
[4] = tested on: β subunits of the proteasome; experiment: 'Chymotrypsin-like' enzyme activity in PIF-treated murine myotubes; type: cell-based
Protocol: The functional activity of the β subunits of the proteasome was determined as the ‘chymotrypsin-like’ enzyme activity obtained fluorimetrically according to the method of Orino, E. et al. ATP-dependent reversible association of proteasomes with multiple protein components to form 26S complexes that degrade ubiquitinated proteins in human HL-60 cells. FEBS Lett., 284: 206-210, 1991. Myotubes were exposed to PIF for 24 h with or without EPA or HMB added 2 h prior to PIF and enzyme activity was determined in a supernatant fraction (Whitehouse, A. S. et al. Increased expression of the ubiquitin-proteasome pathway in murine myotubes by proteolysis-inducing factor (PIF) is associated with activation of the transcription factor NF-κB. Br. J. Cancer, 89: 1116-1122, 2003) by the release of aminomethyl coumarin (AMC) from succinyl-LLVY-AMC (0.1 mM) in the presence or absence of the specific proteasome inhibitor lactacystin (10 μM) (Fenteany, G. et al. Lactacystin, proteasome function and cell fate. J. Biol. Chem., 273: 8545-8548, 1998). Only lactacystin suppressible activity was considered to be proteasome specific. Activity was adjusted for the protein concentration of the sample, determined using the Bradford assay (Sigma Chemical Co., Dorset, United Kingdom) using bovine serum albumin as standard.

[5] = tested on: p42, ATPase subunit of the 19S regulator; experiment: Western blotting of p42 in gastrocnemius muscle of MAC16 mice; type: in vivo, NMRI mice
[6] = HMB 0.25 g/kg, EPA 0.6 g/kg or combination, 3 days

- attenuation of PIF-induced increase in 'chymotrypsin-like' enzyme activity ([4]; 25 μM HMB): completely attenuated
- attenuation of PIF-induced increase in 'chymotrypsin-like' enzyme activity ([4]; 50 μM): completely attenuated
Structure (SMILES): CC(C)(O)CC(=O)O [HMB, beta-hydroxy-beta-methylbutyric acid]
- tyrosine release (total protein degradation in soleus muscle) [1]: as effective as EPA
- attenuation of PIF induced protein degradation (C2C12 myotubes; 25 μM HMB, at low, but not at high concentrations of PIF): some attenuation
- attenuation of PIF induced protein degradation (C2C12 myotubes; 50 μM, 24 h after addition of PIF): equally effective
- Fat (%) ([2]; HMB 0.125 g/kg for 5 days): 3.3 ± 1.6%
- Nonfat (%) ([2]; HMB 0.125 g/kg for 5 days): 31.2 ± 1.5 %
- Water (%) ([2]; HMB 0.125 g/kg for 5 days): 65.5 ± 0.9%
- Fat (%) ([2]; HMB 0.25 g/kg for 5 days): 4.4 ± 1.3%
- Nonfat (%) ([2]; HMB 0.25 g/kg for 5 days): 29.2 ± 1.9 %
- Water (%) ([2]; HMB 0.25 g/kg for 5 days): 66.5 ± 2.2%
- Fat (%) ([2]; HMB 0.5 g/kg for 5 days): 3.8 ± 1.2%
- Nonfat (%) ([2]; HMB 0.5 g/kg for 5 days): 29.0 ± 1.4 %
- Water (%) ([2]; HMB 0.5 g/kg for 5 days): 67.2 ± 2.3%
- adipose tissue ([2]; HMB for 5 days, in words): without an effect
- nonfat carcass mass ([2]; HMB for 5 days, in words): significant increase
- expression of 20S proteasome β-subunits [3, 6]: attenuated
- reduction of protein expression of 20S β-subunits ([3]; summary of Examples I-IV): at least 50%
- expression of p42 [5, 6]: equally effective
- reduction of protein expression of p42 ([5]; summary of Examples I-IV): at least 50%
